Measurements published in publication PMC11274511, “Synthesis of Substituted 1,2,4-Triazole-3-Thione Nucleosides Using E. coli Purine Nucleoside Phosphorylase” (Biomolecules, 2024).
Where two headings read alike, the source gives them in different places.

Key:
[1] = target: T1, E. coli purine nucleoside phosphorylase (PNP) (Escherichia coli, UniProt P0ABP8); assay: Test reaction for 2-deoxyriboside synthesis (substrate test, HPLC); type: biochemical; details: for Deoxyriboside Content, % 1 h / Deoxyriboside Content, % 24 h: 1 mM base, 2 mM 2′-deoxyuridine, 10 mM KH2PO4, pH 7.0, 5.6 units PNP, 1.7 units UP, 50 °C; for Substrate of E. coli PNP (product formation according to HPLC): test reaction with 2′-deoxyuridine, PNP and UP
T1 construct: made in house; host or cells: E. coli ER2566
T1 sequence (P0ABP8 2-239): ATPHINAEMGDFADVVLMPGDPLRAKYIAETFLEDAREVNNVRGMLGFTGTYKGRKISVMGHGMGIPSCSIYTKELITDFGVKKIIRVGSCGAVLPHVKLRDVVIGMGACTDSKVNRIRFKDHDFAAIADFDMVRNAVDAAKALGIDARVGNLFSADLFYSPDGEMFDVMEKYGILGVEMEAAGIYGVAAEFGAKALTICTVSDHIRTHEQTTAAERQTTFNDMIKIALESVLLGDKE
Experimental: Each reaction mixture (0.25 mL, pH 7.0) contained 1 mM of the tested heterocyclic base, 2 mM 2′-deoxyuridine, 10 mM KH2PO4, and Escherichia coli purine nucleoside phosphorylase (5.6 units) and uridine phosphorylase (1.7 units). An activity unit is the amount (in µmol) of natural product (hypoxanthine or uracil) formed per minute. The reaction mixtures were incubated at 50 °C. Substrate and product quantities were determined using HPLC.
The test reactions contained the tested heterocyclic base, 2′-deoxyuridine, and both enzymes (PNP and UP).

Vero E6 cells = assay: Cytotoxicity, trypan blue exclusion method; details: for Reduction of cytotoxicity compared to base 7: ribosylation / deoxyribosylation of base 7
Experimental: (§1) Cytotoxicity was determined quantitatively by the trypan blue exclusion method. […] Negative control wells contained cells with maintenance medium.
(§2) After 72 h of cell culture incubation in the presence of a compound at a known concentration, the culture medium was harvested, the cells were treated with Versene solution, and suspended in the previously removed support medium. The resulting cell suspension was combined with 1% trypan blue solution in a ratio of 1:1. The number of live and stained cells was determined using a Goryaev camera (Minimed, Bryansk, Russia).

HSV-1/L2/R^ACV = assay: microbe, parasite or virus in culture
Experimental: (§3) Herpes simplex virus type 1 (HSV-1) strain L2 was obtained from the State’s collection of viruses at FSBI «N. F. Gamaleya National Research Centre for Epidemiology and Microbiology, Russian Ministry of Health, Russia» («D. I. Ivanovsky Institute of Virology» subdivision).
(§4) Antiviral activity in vitro was measured by the method of the cytopathic effect (CPE) inhibition assay. In 96-well plastic plates with the 24 h generated cell monolayer, 2-fold serial dilutions of the compounds were prepared. Cells infected with MOI of 0.1 PFU/cell were incubated at 37 °C in 5% CO2 atmosphere. […] Antiviral activity was assessed by determining of IC50 and IC95.
(§5) Three controls were used: (1) Toxicity control. Uninfected cells were incubated in the presence of the drug in the same concentration range as in the experiment. (2) Virus control. […] (3) Cell control. Uninfected cell cultures were incubated in the maintenance medium, which contained no drug.

HSV-1/L2(TK+) = assay: microbe, parasite or virus in culture
Experimental: as §3, §4, §5

[2] = Cytotoxicity, trypan blue exclusion method; details: African green monkey
Experimental: as §1, §2

FLT-3 = test system: FLT-3; set-up: method as in earlier work; details: cited from earlier work
AURORA-A = test system: AURORA-A; set-up: method as in earlier work; details: cited from earlier work
c-TAK1 = test system: c-TAK1; set-up: method as in earlier work; details: cited from earlier work
[3] = Strain HSV-1/L2/R^ACV, Vero E6, MOI 0.1 PFU/cell, 48 h
[4] = Strain HSV-1/L2(TK+), Vero E6, MOI 0.1 PFU/cell, 48 h
[5] = Vero E6 cells, 72 h, trypan blue
[6] = Vero E6 cells, CC50, Vero E6 cells, 72 h, trypan blue
[7] = Human alphaherpesvirus 1, Vero C1008, 48 h
[8] = Human alphaherpesvirus 1, Vero C1008, 48 h, Strain HSV-1/L2(TK+), Vero E6, MOI 0.1 PFU/cell, 48 h

Molecule | Deoxyriboside Content, % 1 h [1] [%] | Deoxyriboside Content, % 24 h [1] [%] | Substrate of E. coli PNP (product formation according to HPLC) [1] | SI (ratio of CC50 to IC50) (HSV-1/L2/R^ACV; Strain HSV-1/L2/R^ACV) | SI (ratio of CC50 to IC50) (HSV-1/L2(TK+); Strain HSV-1/L2(TK+)) | IC50 (HSV-1/L2(TK+); [4]) [µM] | CC50 at 72 h [2, 6] [µM] | IC50 (HSV-1/L2/R^ACV; [7]) [µM] | IC95 (HSV-1/L2/R^ACV; [7]) [µM] | IC95 (HSV-1/L2(TK+); [7]) [µM] | IC50 (HSV-1/L2(TK+); [8]) [µM] | also measured
1,2,4-Triazole-3-thione [Compound 3] | 0 | 0 | did not prove to be substrates | 3 | 3 | 618 ± 3.7 |  |  |  |  |  | CC50 (Vero E6 cells): 1885.7 ± 1.7 µM; IC50 (HSV-1/L2/R^ACV; [3]): 618 ± 3.7 µM; IC95 (HSV-1/L2/R^ACV; [3]): >1236.0 µM; IC95 (HSV-1/L2(TK+); [4]): >1236.0 µM
5-Phenyl-1,2,4-triazole-3-thione [Compound 4] | 0 | 0 | did not prove to be substrates |  |  | 2821 ± 25.4 |  |  |  |  |  | CC50 (Vero E6 cells): > 5640 µM; CC50 (Vero E6 cells; [5]): > 5640 µM; IC50 (HSV-1/L2/R^ACV; [3]): 2821 ± 25.4 µM; IC95 (HSV-1/L2/R^ACV; [3]): >5642.4 µM; IC95 (HSV-1/L2(TK+); [4]): >5642.4 µM
O=C(CSc1nnc[nH]1)c1ccccc1 [Compound 5, 3-Phenacylthio-1,2,4-triazole] | 94 | 25 | product’s formation was observed | 6 | 6 |  | 3346 ± 26.5 | 570.1 ± 5.1 | 2280 ± 20.5 | 2280 ± 20.5 | 570.1 ± 5.1 | 
CCCCSc1n[nH]c(-c2ccccc2)n1 [Compound 7, 3-Butylthio-5-phenyl-1,2,4-triazole] | 62 | 41 | product’s formation was observed | 1 | 3 | 33.5 ± 0.4 | 91.1 | 67 ± 0.8 | > 67 | > 67 | 33.5 | Activity against kinase FLT-3 (FLT-3): active; Increase of toxicity compared to base 4 (Vero E6 cells; CC50 91.07 vs. 5642.39 µM): 62 fold; CC50 (Vero E6 cells; [5]): 91.1 ± 0.7 µM; Activity against kinase AURORA-A (AURORA-A): active; Activity against kinase c-TAK1 (c-TAK1): active
O=C(CSc1ncn([C@@H]2O[C@H](CO)[C@@H](O)[C@H]2O)n1)c1ccccc1 [Compound 8, 3-Phenacylthio-1-(β-D-ribofuranosyl)-1,2,4-triazole] |  |  |  | >8 | >8 |  | > 3030 | 379 ± 11.4 | 3030 ± 91.5 | 1520 ± 45.8 | 379 ± 11.4 | 
O=C(CSc1ncn([C@H]2C[C@H](O)[C@@H](CO)O2)n1)c1ccccc1 [Compound 9, 1-(2-Deoxy-β-D-ribofuranosyl)-3-phenacylthio-1,2,4-triazole] |  |  |  | 2 | 2 |  | 920 ± 77.2 | 418 ± 25.9 | 835 ± 51.8 | 835 ± 51.8 | 418 ± 25.9 | 
O=C(CSc1nc(-c2ccccc2)nn1[C@@H]1O[C@H](CO)[C@@H](O)[C@H]1O)c1ccccc1 [Compound 10, 5-Phenacylthio-3-phenyl-1-(β-D-ribofuranosyl)-1,2,4-triazole] |  |  |  | 2 | 3 |  | 480 ± 6.2 | 305 ± 8.8 | 305 ± 8.8 | 305 ± 8.8 | 152 ± 4.4 | 
O=C(CSc1nc(-c2ccccc2)nn1[C@H]1C[C@H](O)[C@@H](CO)O1)c1ccccc1 [Compound 11, 1-(2-Deoxy-β-D-ribofuranosyl)-5-phenacylthio-3-phenyl-1,2,4-triazole] |  |  |  | 2 | 2 |  | 244 ± 6.2 | 149 ± 5.1 | 149 ± 5.1 | 149 ± 5.1 | 149 ± 5.1 | 
CCCCSc1nc(-c2ccccc2)nn1[C@@H]1O[C@H](CO)[C@@H](O)[C@H]1O [Compound 12, 5-Butylthio-3-phenyl-1-(β-D-ribofuranosyl)-1,2,4-triazole] |  |  |  | 4 | 4 |  | 657 | 188 ± 3.2 | 375 ± 6.4 | 375 ± 6.4 | 188 ± 3.2 | CC50 (Vero E6 cells; [5]): 658 ± 13.9 µM; Reduction of cytotoxicity compared to base 7 (Vero E6 cells): more than 7 times; Decrease of antiviral activity compared to base 7 (HSV-1/L2(TK+); IC50 based): 6 fold
CCCCSc1nc(-c2ccccc2)nn1[C@H]1C[C@H](O)[C@@H](CO)O1 [Compound 13, 5-Butylthio-1-(2-deoxy-β-D-ribofuranosyl)-3-phenyl-1,2,4-triazole] |  |  |  | 8 | 16 | 23.4 ± 0.6 | 364 ± 6 | 46.9 ± 1.2 | 93.8 ± 2.4 | 93.8 ± 2.4 | 23.4 | Reduction of cytotoxicity compared to base 7 (Vero E6 cells): 4 times
NC(=O)c1ncn([C@@H]2O[C@H](CO)[C@@H](O)[C@H]2O)n1 [Ribavirin, reference compound] |  |  |  |  |  |  |  | 1020 ± 39.9 | > 2050 | > 2050 | 512 ± 20 | CC50 at 72 h [2]: > 2050 µM
